Results: patent US10421725B2, “Alkoxyamines for the treatment of cancers” (Centre National De La Recherche Scientifique, priority 2013, dated 2019)

Key:
U87 cells [1] = assay: Mitochondrial alterations measurements (TMRE, NAO); type: cell-based, Human
Description: (§1) Cell culture: Human glioblastoma-astrocytoma cell line U87 MG from the American Type Culture Collection (reference ATCC-HTB-14) were cultured in Dulbecco's modified eagles medium (DMEM, Gibco Corp) supplemented with 10% fetal calf serum (FCS, Gibco Corp), in a humidified atmosphere with 5% CO2 at 37° C.
Mitochondrial alterations measurements. The red fluorescent dye tetramethylrhodamine ethyl ester (TMRE, Molecular Probes, Invitrogen, Life Technologies) was used to follow variations in mitochondrial membrane potential. This cationic probe accumulates in polarized mitochondria through the electrochemical gradient. Nonyl Acridine Orange (NAO, Molecular Probes, Invitrogen, Life Technologies) was then used as a complementary assay to assess the changes in mitochondrial morphology. Cells were plated on 24 multi-well plates (Becton-Dickinson, 2 cm^2/well) during 24 h and treated with a range of ALK-1 concentrations (0.1; 0.25; 0.375; 0.5; 0.75; 1.0 and 1.5 mM). After 3, 24 or 72 h, cells were resuspended in TMRE (250 nM) or NAO (500 nM) and incubated 30 minutes at 37° C., 5% CO2. Incubation with 0.5 mM of Carbonyl cyanide 3-chlorophenylhydrazone (CCCP, Sigma-Aldrich) was performed as positive control of the mitochondrial depolarization staining. Then, cells were washed and analyzed by flow cytometry. All the experiments were performed three times.

U87 cells [2] = assay: Cell death analysis by annexin V/propidium iodide staining; type: cell-based, Human
Description: as §1
Cell death analysis by annexin V/propidium iodide staining. Cell death was detected by annexin V-FITC (Molecular Probes, Invitrogen, Life Technologies) binding to exposed […] (PS) residues at the surface of cells. Cells were treated with ALK-1 at concentrations ranging from 0.1 to 1.5 mM at 37° C. and tested at distinct observation times (3, 24 or 72 h). After treatment, cells were re-suspended in staining buffer containing propidium iodide (PI, 2 μg/mL) and annexin V-FITC. Double-labeling was performed at room temperature for 15 min in darkness. Then, the percentage of viable (IP−/AV−), early apoptotic (IP−/AV+) and late apoptosis/necrotic cells (IP+/AV+) was quantified by flow cytometry. These experiments were performed twice.

[3] = cited from earlier work
[4] = Monitoring of ALK-1 homolysis by Overhauser-enhanced MRI (OMRI); type: physicochemical
From the text: EPR Cavity and MRI devices. The OMRI experiment were done in a C-shaped 0.2 T MRI system (Magnetom Open Viva, Siemens, Erlangen, Germany) and a resonant TE011 transverse electric mode EPR cavity setup (Bruker, Wissembourg, France) as described previously. The EPR cavity, placed at the center of the magnet, was used to saturate the electron spin transition of the nitroxide SG1 produced upon ALK-1 homolysis. A homemade saddle-shaped MRI coil (28 mm in diameter and 29 mm in length) in the EPR cavity was used for imaging.
Electron spin saturation was carried out at 5.4573 GHz, corresponding to the first line at high field from the center of the EPR spectrum. The proton frequency was 8.24 MHz. Sample temperature was kept at 37° C.
OMRI experiments were performed in two NMR tubes (4 mm inner diameter): one containing 0.8 mM of SG1 nitroxide in phosphate buffer saline (not shown) and the other with 0.8 mM of ALK-1 in DMEM, 10% FCS. ALK-1 homolysis was followed for 48 hours.
Pulse sequences. […] All MR adjustments were done manually, using the same fixed receiver amplification gain for both measurements, without (Soff) and with (Son) HF irradiation, so that signals can be directly compared and Overhauser enhancements (Son/Soff) calculated.
Post-processing. […] Signal intensity was measured in a rectangular region of interest of 2 mm^2 positioned in the NMR tube area. […]

U87 cells [5] = assay: Apoptosis detection through caspase-3/-7 assay; type: cell-based, Human
Description: as §1
Apoptosis detection through caspase-3/-7 assay. Quantitative assessment of apoptotic cells was also conducted by the detection of caspase activity using the Vybrant® FAM Caspase-3 and -7 Assay Kit (Molecular Probes, Invitrogen, Life Technologies). Briefly, cells were treated with the previously described ALK-1 concentrations during 3, 24 or 72 h. After the alkoxyamine treatment, the cells were dissociated from the support, washed and incubated 1 h at 37° C. in FLICA working solution. Then, the cells were washed and green fluorescence was measured by flow cytometry. These experiments were performed twice.

U87 cells [6] = assay: Oxidative stress (carboxy-H2DCFDA probe, flow cytometry); type: cell-based, Human; conditions: 3 mM, 1 h
Description: as §1
Oxidative stress: The cells were grown in a 24 multiwell plate as previously described. Then, cells were dissociated using 0.05% trypsin (Invitrogen, Carlsbad, Calif., USA) and suspended at a density of 1×10^6 cells/mL in carboxy-H2DCFDA (Molecular Probes, Invitrogen, Life Technologies) at 50 μM. After 30 minutes incubation at 37° C., cells were washed with phosphate buffered saline (PBS). Cells were centrifuged and resuspended with cell culture media containing or not 3 mM alkoxyamine with or without trihydroxyethylrutin at 20 or 50 mM. After incubation time the cells were washed and analyzed on a Guava easyCyte flow cytometer/counter.

U87 cells [7] = assay: Viability test (LIVE/DEAD kit, flow cytometry); type: cell-based, Human
Description: as §1
Viability Test: The viability study of U87 cells treated or not with the alkoxyamine was measured by the LIVE/DEAD® Viability/Cytotoxicity Kit (Molecular Probes, Invitrogen, Life Technologies). Briefly, the cells were allowed to grow during 24 h on 24 multiwell plates (Becton-Dickinson, 2 cm^2/well). They were then treated with the alkoxyamine at concentrations ranging from 0.1 to 3 mM and tested for viability at distinct observation times (1, 3, 6, 24 or 72 h). To do this the adherent cells were dissociated from the plate by trypsinization and pelleted by centrifugation. Then, the cells were resuspended at 10^6 cells/mL on calcein-am and ethidium homodimer-1 solution during 20 minutes at room temperature and analyzed on a Guava easyCyte flow cytometer/counter (Millipore). U87 cells viability was also measured after treatment with previously homolysed alkoxyamine. For these experiments, the alkoxyamine was incubated in the culture medium during 72 h at 6 mM without the cells. U87 cells were then treated with different concentrations of this homolysed alkoxyamine for 1 h and a viability test was performed as previously described. The viability test in the presence of the free radical scavenger was carried out with an alkoxyamine concentration of 3 mM and an incubation time of 1 h. U87 cells viability was measured versus increasing concentrations the radical scavenger, trihydroxyethylrutin (Santa Cruz Biotechnology, inc.) namely, 20, 50 or 100 mM.

| Structure (SMILES) | NAO staining (U87 cells [1]; 24 h, ALK-1 concentrations greater than 0.5 mM) | concentration from which the mitochondrial potential drops (TMRE) (U87 cells [1]; all times of observation (3, 24, 72 h)) [mM] | necrotic or apoptotic cells (PI+/AV+) (U87 cells [2]; 3 h, 1.5 mM) | necrotic or apoptotic cells (PI+/AV+) (U87 cells [2]; 24 h, 1 mM) [%] | PI+/AV+ cells (U87 cells [2]; 72 h, 0.5 mM) | Ea (homolysis activation energy), value reported [3] [kcal/mol] | Ea (homolysis activation energy) ([4]; afforded by the OMRI t1/2) [kcal/mol] | half-life at 0.8 mM ([4]; cell culture medium (DMEM, 10% FCS), 0.8 mM, culture cell medium, 37° C., OMRI, read-out: experimental t1/2 of homolysis) [h] | cells carrying activated caspases (U87 cells [5]; 3 h, 1.5 mM) [%] | caspase positive cells (U87 cells [5]; 24 h, 1 mM) [%] | caspase+ cells (U87 cells [5]; 72 h, 0.25 mM) | caspase positive cells (U87 cells [5]; 72 h, 0.5 mM) [%] | oxidative stress (U87 cells [6]) | cells saved by the free radical scavenger (U87 cells [7]; 3 mM alkoxyamine, 1 h, with free radical scavenger (trihydroxyethylrutin)) [%] | cells killed (U87 cells [7]; 3 mM, one hour) | cytotoxic effect (U87 cells [7]; 0.1 to 3 mM) | toxicity for U87 cells of previously homolysed alkoxyamine (U87 cells [7]; same concentration, previously homolysed (72 h in culture medium), 1 h treatment) | mitochondrial potential (TMRE) (U87 cells [1]; 0.5 mM CCCP positive control, all incubation times) | accessibility of the cardiolipins to NAO (U87 cells [1]; 0.5 mM CCCP, independently of incubation time) |
| --- | --- | --- | --- | --- | --- | --- | --- | --- | --- | --- | --- | --- | --- | --- | --- | --- | --- | --- | --- |
| CCOP(=O)(OCC)C(N(OC(C)c1cc[n+](C)cc1)C(C)(C)C)C(C)(C)C (stereo not shown) [ALK-1, N-methyl 4-(1-((tert-butyl(1-(diethoxyphosphoryl)-2,2-dimethylpropyl)amino)oxy)ethyl)pyridin-1-ium 4-methylbenzenesulfonate] | increased | ≥ 0.5 | most cells were necrotic or apoptotic cells | 94 | most cells were PI+/AV+ | 25.3 | 26.1 | ~2.08 | 92 | 88 | more than 40% | 80 | strong oxidative stress | 80 | approximately 75% | dose-dependent cytotoxic effect | do not carry any toxicity | – | – |
| N#CC(C#N)=NNc1cccc(Cl)c1 [CCCP, Carbonyl cyanide 3-chlorophenylhydrazone, reference compound] | – | – | – | – | – | – | – | – | – | – | – | – | – | – | – | – | – | expected drop of the mitochondrial potential | either neutral or positive |
